# In patent US20240417410A1, “TRICYCLIC COMPOUNDS FOR THE TREATMENT OF CANCER” (Hoffmann-La Roche Inc., priority 2023, published 2024):
# Tests used:
# AGS cells (KRAS G12D) = test: Cell viability assay (Cell Counting Kit-8, 3-day); format: cell-based, human; conditions: Homo sapiens, 72 h, 72 hrs incubation
# Procedure, shortened: (§1)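 Cells seeded at 5,000/well (NCI-H358) or 2,000/well (AGS, SW620), treated next day at 0.5% final DMSO for 72 h. Viability read by CCK-8 (OD450 minus OD650) after 2 h; IC50 from 4-parameter sigmoidal fit.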
# SW620 cells (KRAS G12V) = test: Cell viability assay (Cell Counting Kit-8, 3-day); format: cell-based, human; conditions: Homo sapiens, SW-620; SW620, 72 hrs incubation
# Procedure, shortened: as §1
# [1] = test system: NCI-H358 cells (KRAS G12C); test: Cell viability assay (Cell Counting Kit-8, 3-day); format: cell-based, human; conditions: Homo sapiens, NCI-H358, 72 h, NCI-H358, 72 hrs incubation
# Procedure, shortened: as §1
# KRAS G12C-BRAF complex = KRAS G12C-BRAF complex (Homo sapiens (Human), UniProt P01116+P62937, G12C); test: KRAS-BRAF with CYPA (500 nM) interaction assay (TR-FRET, Example 136); format: biochemical; conditions: KRAS G12C-BRAF disruption
# [2] = test system: phosphorylation of ERK, KRAS G12V in SW620; test: pERK inhibition assay; format: cell-based; conditions: Homo sapiens, SW-620, 4 h, SW620 cells
# Procedure, shortened: (§2)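 NCI-H358 (KRAS G12C), AGS (G12D) and SW620 (G12V) cells plated overnight, then treated with compound for 4 h in 0.5% DMSO. After fixing and methanol permeabilisation, phospho-ERK was detected by in-cell ELISA (HRP/TMB, OD450). IC50 from a 4-parameter sigmoidal fit.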
# [3] = test system: phosphorylation of ERK, KRAS G12D in AGS cells; test: pERK inhibition assay; format: cell-based; conditions: Homo sapiens, AGS, 4 h
# Procedure, shortened: as §2
# [4] = test system: phosphorylation of ERK, KRAS G12C in NCI-H358 cells; test: pERK inhibition assay; format: cell-based; conditions: Homo sapiens, NCI-H358, 4 h
# Procedure, shortened: as §2
# KRAS G12C-BRAF complex, sequence (P01116-2 other isoform, or with tags, fused parts or gaps G12C): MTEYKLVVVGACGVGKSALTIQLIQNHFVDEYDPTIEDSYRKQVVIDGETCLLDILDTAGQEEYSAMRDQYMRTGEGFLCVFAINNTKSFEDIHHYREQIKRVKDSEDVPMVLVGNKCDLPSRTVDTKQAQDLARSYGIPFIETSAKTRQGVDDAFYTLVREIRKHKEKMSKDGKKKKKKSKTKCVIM
# KRAS G12C-BRAF complex, sequence (P62937 whole entry): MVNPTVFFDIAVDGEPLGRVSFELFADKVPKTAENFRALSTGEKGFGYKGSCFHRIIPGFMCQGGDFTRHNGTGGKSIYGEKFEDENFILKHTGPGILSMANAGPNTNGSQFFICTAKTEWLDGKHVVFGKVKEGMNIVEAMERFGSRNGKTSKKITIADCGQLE
structure (smiles),measurement,setting,value
"CO[C@@H](C)c1ncc(N2CCN(C)CC2)cc1-c1c2c3cc(cc4c3n1CCO4)-c1csc(n1)C[C@H](NC(=O)C1(C)CC1C)C(=O)N1CCC[C@H](N1)C(=O)OCC(C)(C)C2 (stereo partly drawn) [Example 55, N-[(7S,13S)-(20M)-20-[2-[(1S)-1-methoxyethyl]-5-(4-methylpiperazin-1-yl)-3-pyridyl]-17,17-dimethyl-8,14-dioxo-15,24-dioxa-4-thia-9,21,30,31-tetrazahexacyclo[23.3.1.1^2,5.1^9,13.0^19,27.0^21,26]hentriaconta-1 (29),2,5 (31), 19,25,27-hexaen-7-yl]-1,2-dimethyl-cyclopropanecarboxamide]",IC50,AGS cells (KRAS G12D),69.1 nM
same,IC50,SW620 cells (KRAS G12V),5.6 nM
same,IC50,[1],48.3 nM
same,IC50,KRAS G12C-BRAF complex,23.6 nM
same,IC50,[2],3.1 nM
same,IC50,[3],18.1 nM
same,IC50,[4],4.9 nM
"CO[C@@H](C)c1ncc(N2CCN(C)CC2)cc1-c1c2c3cc(cc4c3n1CCC4)-c1csc(n1)C[C@H](NC(=O)[C@@H]1[C@@H]3COC[C@@H]31)C(=O)N1CCC[C@H](N1)C(=O)OCC(C)(C)C2 (atropisomer, axis not shown; (M)) [Example 42, (1R,5S,6s)-N-[(7S,13S)-(20M)-20-[2-[(1S)-1-methoxyethyl]-5-(4-methylpiperazin-1-yl)-3-pyridyl]-17,17-dimethyl-8,14-dioxo-15-oxa-4-thia-9,21,30,31-tetrazahexacyclo[23.3.1.1^2,5.1^9,13.0^19,27.0^21,26]hentriaconta-1 (28),2,5 (31), 19,25 (29),26-hexaen-7-yl]-3-oxabicyclo[3.1.0]hexane-6-carboxamide]",IC50,AGS cells (KRAS G12D),22.4 nM
same,IC50,SW620 cells (KRAS G12V),1.3 nM
same,IC50,[1],5.4 nM
same,IC50,KRAS G12C-BRAF complex,20.5 nM
same,IC50,[2],1.4 nM
same,IC50,[3],8.1 nM
same,IC50,[4],0.9 nM
"CO[C@@H](C)c1ncc(N2CCN(CC(F)(F)F)CC2)cc1-c1c2c3cc(cc4c3n1CCO4)-c1csc(n1)C[C@H](NC(=O)[C@H]1[C@H](C)[C@@H]1C)C(=O)N1CCC[C@H](N1)C(=O)OCC(C)(C)C2 (atropisomer, axis not shown; (M)) [Example 85, (1r,2S,3R)-N-[(7S,13S)-(20M)-20-[2-[(1S)-1-methoxyethyl]-5-[4-(2,2,2-trifluoroethyl)piperazin-1-yl]-3-pyridyl]-17,17-dimethyl-8,14-dioxo-15,24-dioxa-4-thia-9,21,30,31-tetrazahexacyclo[23.3.1.1^2,5.1^9,13.0^19,27.0^21,26]hentriaconta-1 (28),2,5 (31),19,25 (29),26-hexaen-7-yl]-2,3-dimethyl-cyclopropanecarboxamide]",IC50,AGS cells (KRAS G12D),13 nM
same,IC50,SW620 cells (KRAS G12V),1 nM
same,IC50,[1],9 nM
same,IC50,KRAS G12C-BRAF complex,18.8 nM
same,IC50,[2],0.6 nM
same,IC50,[3],5.6 nM
same,IC50,[4],1.7 nM
"CO[C@@H](C)c1ncc(N2CCN(C)CC2)cc1-c1c2c3cc(cc4c3n1CC(F)(F)C4)-c1csc(n1)C[C@H](NC(=O)[C@H]1C[C@@H]1c1cncnc1)C(=O)N1CCC[C@H](N1)C(=O)OCC(C)(C)C2 (atropisomer, axis not shown; (M)) [Example 95]",IC50,AGS cells (KRAS G12D),8.7 nM
same,IC50,SW620 cells (KRAS G12V),1.3 nM
same,IC50,[1],4 nM
same,IC50,KRAS G12C-BRAF complex,13.7 nM
same,IC50,[2],0.4 nM
same,IC50,[3],3.4 nM
same,IC50,[4],0.5 nM
"CO[C@@H](C)c1ncc(N2CCOCC2)cc1-c1c2c3cc(cc4c3n1CCC4)-c1csc(n1)C[C@H](NC(=O)[C@H]1C[C@@H]1c1cncnc1)C(=O)N1CCC[C@H](N1)C(=O)OCC(C)(C)C2 (atropisomer, axis not shown; (M)) [Example 94, (1S,2S)-N-[(7S,13S)-(20M)-20-[2-[(1S)-1-methoxyethyl]-5-morpholino-3-pyridyl]-17,17-dimethyl-8,14-dioxo-15-oxa-4-thia-9,21,30,31-tetrazahexacyclo[23.3.1.1^2,5.1^9,13.0^19,27.0^21,26]hentriaconta-1 (28),2,5 (31),19,25 (29),26-hexaen-7-yl]-2-pyrimidin-5-yl-cyclopropanecarboxamide]",IC50,AGS cells (KRAS G12D),6.9 nM
same,IC50,SW620 cells (KRAS G12V),0.5 nM
same,IC50,[1],2.3 nM
same,IC50,KRAS G12C-BRAF complex,6.9 nM
same,IC50,[2],0.4 nM
same,IC50,[3],2.4 nM
same,IC50,[4],0.4 nM
"CO[C@@H](C)c1ncc(N2CCN(CC(F)(F)F)CC2)cc1-c1c2c3cc(cc4c3n1CCC4)-c1csc(n1)C[C@H](NC(=O)[C@H]1[C@H](C)[C@@H]1C)C(=O)N1CCC[C@H](N1)C(=O)OCC(C)(C)C2 (atropisomer, axis not shown; (M)) [Example 86, (1r,2R,3S)-N-[(7S,13S)-(20M)-20-[2-[(1S)-1-methoxyethyl]-5-[4-(2,2,2-trifluoroethyl)piperazin-1-yl]-3-pyridyl]-17,17-dimethyl-8,14-dioxo-15-oxa-4-thia-9,21,30,31-tetrazahexacyclo[23.3.1.1^2,5.1^9,13.0^19,27.0^21,26]hentriaconta-1 (28),2,5 (31),19,25 (29),26-hexaen-7-yl]-2,3-dimethyl-cyclopropanecarboxamide]",IC50,AGS cells (KRAS G12D),45.2 nM
same,IC50,SW620 cells (KRAS G12V),2.5 nM
same,IC50,[1],14.1 nM
same,IC50,KRAS G12C-BRAF complex,17.9 nM
same,IC50,[2],0.8 nM
same,IC50,[3],15 nM
same,IC50,[4],1.8 nM
"CO[C@@H](C)c1ncc(N2CCN(C)CC2)cc1-c1c2c3cc(cc4c3n1CCC4)-c1csc(n1)C[C@H](NC(=O)[C@H]1C[C@@H]1c1cccnn1)C(=O)N1CCC[C@H](N1)C(=O)OCC(C)(C)C2 (atropisomer, axis not shown; (M)) [Example 63, (1S,2S)-N-[(7S,13S)-(20M)-20-[2-[(1S)-1-methoxyethyl]-5-(4-methylpiperazin-1-yl)-3-pyridyl]-17,17-dimethyl-8,14-dioxo-15-oxa-4-thia-9,21,30,31-tetrazahexacyclo[23.3.1.1^2,5.1^9,13.0^19,27.0^21,26]hentriaconta-1 (28),2,5 (31), 19,25 (29),26-hexaen-7-yl]-2-pyridazin-3-yl-cyclopropanecarboxamide]",IC50,AGS cells (KRAS G12D),78 nM
same,IC50,SW620 cells (KRAS G12V),4.2 nM
same,IC50,[1],10.6 nM
same,IC50,KRAS G12C-BRAF complex,34 nM
same,IC50,[2],3 nM
same,IC50,[3],18.3 nM
same,IC50,[4],5.1 nM
"CO[C@@H](C)c1ncc(N2CCN(CC(F)(F)F)CC2)cc1-c1c2c3cc(cc4c3n1CCO4)-c1csc(n1)C[C@H](NC(=O)[C@H]1C[C@@H]1C(F)F)C(=O)N1CCC[C@H](N1)C(=O)OCC(C)(C)C2 (atropisomer, axis not shown; (M)) [Example 11, (1S,2S)-2-(difluoromethyl)-N-[(7S,13S)-(20M)-20-[2-[(1S)-1-methoxyethyl]-5-[4-(2,2,2-trifluoroethyl)piperazin-1-yl]-3-pyridyl]-17,17-dimethyl-8,14-dioxo-15,24-dioxa-4-thia-9,21,30,31-tetrazahexacyclo[23.3.1.1^2,5.1^9,13.0^19,27.0^21,26]hentriaconta-1 (28),2,5 (31),19,25 (29),26-hexaen-7-yl]cyclopropanecarboxamide]",IC50,AGS cells (KRAS G12D),38.4 nM
same,IC50,SW620 cells (KRAS G12V),2.4 nM
same,IC50,[1],18.8 nM
same,IC50,KRAS G12C-BRAF complex,12.4 nM
same,IC50,[2],0.8 nM
same,IC50,[3],2.9 nM
same,IC50,[4],5.1 nM
"CO[C@@H](C)c1ncc(N2CCN(C)CC2)cc1-c1c2c3cc(cc4c3n1CC(F)(F)C4)-c1csc(n1)C[C@H](NC(=O)[C@H]1[C@H](C)[C@@H]1C)C(=O)N1CCC[C@H](N1)C(=O)OCC(C)(C)C2 (atropisomer, axis not shown; (M)) [Example 83]",IC50,AGS cells (KRAS G12D),9.2 nM
same,IC50,SW620 cells (KRAS G12V),0.5 nM
same,IC50,[1],3.1 nM
same,IC50,KRAS G12C-BRAF complex,10.3 nM
same,IC50,[2],0.5 nM
same,IC50,[3],6 nM
same,IC50,[4],0.9 nM
"CO[C@@H](C)c1ncc(N2CCN(C)CC2)cc1-c1c2c3cc(cc4c3n1CCC4)-c1csc(n1)C[C@H](NC(=O)[C@H]1C[C@@H]1c1ccccn1)C(=O)N1CCC[C@H](N1)C(=O)OCC(C)(C)C2 (atropisomer, axis not shown; (M)) [Example 30, (1S,2S)-N-[(7S,13S)-(20M)-20-[2-[(1S)-1-methoxyethyl]-5-(4-methylpiperazin-1-yl)-3-pyridyl]-17,17-dimethyl-8,14-dioxo-15-oxa-4-thia-9,21,30,31-tetrazahexacyclo[23.3.1.1^2,5.1^9,13.0^19,27.0^21,26]hentriaconta-1 (28),2,5 (31),19,25 (29),26-hexaen-7-yl]-2-(2-pyridyl)cyclopropanecarboxamide]",IC50,AGS cells (KRAS G12D),23.4 nM
same,IC50,SW620 cells (KRAS G12V),1.3 nM
same,IC50,[1],4.9 nM
same,IC50,KRAS G12C-BRAF complex,17.2 nM
same,IC50,[2],< 0.6 nM
same,IC50,[3],7.3 nM
same,IC50,[4],1.3 nM
"CO[C@@H](C)c1ncc(N2CCN(C)CC2)cc1-c1c2c3cc(cc4c3n1CCC4)-c1csc(n1)C[C@H](NC(=O)[C@H]1[C@@H]3COC[C@@H]31)C(=O)N1CCC[C@H](N1)C(=O)OCC(C)(C)C2 (atropisomer, axis not shown; (M)) [Example 15, (1S,5R,6r)-N-[(7S,13S)-(20M)-20-[2-[(1S)-1-methoxyethyl]-5-(4-methylpiperazin-1-yl)-3-pyridyl]-17,17-dimethyl-8,14-dioxo-15-oxa-4-thia-9,21,30,31-tetrazahexacyclo[23.3.1.1^2,5.1^9,13.0^19,27.0^21,26]hentriaconta-1 (28),2,5 (31), 19,25 (29),26-hexaen-7-yl]-3-oxabicyclo[3.1.0]hexane-6-carboxamide]",IC50,AGS cells (KRAS G12D),15.9 nM
same,IC50,SW620 cells (KRAS G12V),1.2 nM
same,IC50,[1],6.6 nM
same,IC50,KRAS G12C-BRAF complex,11.9 nM
same,IC50,[2],0.8 nM
same,IC50,[3],5.2 nM
same,IC50,[4],0.7 nM
